Results on one compound are retold here after patent US20230293535A1, “ERBB/BTK INHIBITORS” (Dizal (Jiangsu) Pharmaceutical Co., Ltd., priority 2018, published 2023).

The nature of data set [1]: Rat pharmacokinetic study after oral administration (SOA). In kind it is in vivo. Conditions: male Han Wistar rats. Here is the method:
For rat pharmacokinetic studies, six male Han Wistar rats were purchased from Beijing Vital River and orally dosed with the test compound at 10 mg/kg in 0.5% Tween-80 and 0.5% hydroxypropyl methylcellulose (v/w). At, 0.5, 1, 2, 4, 7 and 16 hours post-dose, blood samples (>100 µL/time point) were collected from portal vein and via cardiac puncture into separate K2EDTA […] tubes, and then immediately centrifuged at 1500 g, 5 min at 4° C. to separate plasma. The plasma samples were deproteinized with 4 fold acetonitrile (including internal standard), vortex for 10 min and centrifuges for 10 minutes at 4000 g at 4° C.. The supernatantswere submitted to LC/MS/MS (API 5500, Applied Biosystems, Foster City) analysis. Two sets of standard curves were run at the beginning and end of each batch from plasma sample analysis.
Compound absorption was measured by portal vein AUC (AUCHPV) and systemic AUC (AUCSYS) observed maximum concentration (Cmax) in rats after oral administration. Dose is the actual dose used in SOA study. Find below in Table 9 data for exemplary tested compounds.

The next data set relates to Ri-1 cells. As to the kind of experiment: BTK (wt) cell proliferation, Ri-1 (CellTiter-Glo, 72 h).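 Note: viable cells quantified as cellular ATP luminescence, proliferation normalized to a time-zero plate and the DMSO control, compounds tested across a dilution series.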 In kind it is cell-based. The settings on record: Ri-1, 72 h, Ri-1 cells, 72 h, CellTiter-Glo; read-out: BTK WT Ri-1 GI50. For orientation: ATP-based viability assays read luminescence as a measure of living cells.
A further data set relates to DB cells. The data set can be described thus: BTK (wt) cell proliferation, DB (CellTiter-Glo, 72 h).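 Note: DB cells in 384-well plates given a dilution series of compound, viable cells read by ATP luminescence, growth expressed versus DMSO control after subtracting a time-zero plate reading.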 In kind it is cell-based. Conditions: Homo sapiens, DB, DB cells, CellTiter-Glo, read-out: Non-BCR activated DB GI50.
The target in data set [2] is T1, human EGFR exon 20 V769_D770insASV (Homo sapiens, UniProt P00533, INS769ASV).
T1 construct: expressed in transfected cells; host or cells: Ba/F3 (DSMZ ACC-300), lentiviral transduction, puromycin selection, IL3 depletion
T1 sequence (P00533 with tags, fused parts or gaps INS769ASV): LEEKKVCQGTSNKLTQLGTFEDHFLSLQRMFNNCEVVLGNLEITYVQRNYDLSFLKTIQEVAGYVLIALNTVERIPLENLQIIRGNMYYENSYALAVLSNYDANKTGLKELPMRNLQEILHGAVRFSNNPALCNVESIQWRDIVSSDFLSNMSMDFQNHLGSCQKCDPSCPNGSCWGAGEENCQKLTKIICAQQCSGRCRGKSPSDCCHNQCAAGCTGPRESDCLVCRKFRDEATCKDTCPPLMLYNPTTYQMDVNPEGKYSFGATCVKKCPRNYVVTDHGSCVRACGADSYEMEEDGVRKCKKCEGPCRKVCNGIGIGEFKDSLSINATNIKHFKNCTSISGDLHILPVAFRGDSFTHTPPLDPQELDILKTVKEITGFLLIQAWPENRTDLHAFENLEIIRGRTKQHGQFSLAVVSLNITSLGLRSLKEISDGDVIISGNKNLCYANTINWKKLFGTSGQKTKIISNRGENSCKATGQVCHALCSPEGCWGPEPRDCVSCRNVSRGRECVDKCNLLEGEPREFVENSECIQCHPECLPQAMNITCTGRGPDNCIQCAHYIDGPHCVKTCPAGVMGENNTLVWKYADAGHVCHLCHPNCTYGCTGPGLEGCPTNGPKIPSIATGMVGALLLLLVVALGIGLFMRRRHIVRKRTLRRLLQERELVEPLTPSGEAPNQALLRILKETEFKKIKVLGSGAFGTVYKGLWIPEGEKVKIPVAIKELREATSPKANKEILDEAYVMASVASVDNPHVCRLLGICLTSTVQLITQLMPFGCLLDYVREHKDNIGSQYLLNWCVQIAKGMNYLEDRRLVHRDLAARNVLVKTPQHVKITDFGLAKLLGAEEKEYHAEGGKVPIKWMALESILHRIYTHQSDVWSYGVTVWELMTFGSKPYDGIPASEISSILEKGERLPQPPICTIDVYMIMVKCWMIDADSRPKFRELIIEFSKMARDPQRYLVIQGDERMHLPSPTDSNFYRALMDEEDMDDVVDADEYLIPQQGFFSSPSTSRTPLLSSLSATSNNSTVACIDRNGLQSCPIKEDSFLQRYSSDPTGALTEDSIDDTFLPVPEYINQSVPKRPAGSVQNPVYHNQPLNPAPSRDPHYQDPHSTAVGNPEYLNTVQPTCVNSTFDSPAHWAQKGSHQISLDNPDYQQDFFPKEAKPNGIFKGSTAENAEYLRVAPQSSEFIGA
As to the kind of experiment: EGFR Exon20 ASV insertion cellular phosphorylation inhibition (MSD pEGFR Y1068/total EGFR).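 Note: electrochemiluminescent readout on an MSD SECTOR Imager, IL3-independent transduced cells in medium with 1% FBS, compound concentration series at 37 °C and 5% CO2.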 In kind it is cell-based. The settings on record: Ba/F3 EGFR ASV ins cells, 4 h compound, p-EGFR(Y1068)/total EGFR.

The test system of data set [3] is Her2 exon 20 insertion YVMA transduced NIH-3T3 cell line. As to the kind of experiment: Cell proliferation, Her2 YVMAins NIH-3T3 (CellTiter-Glo, 72 h).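 Note: viable cells quantified by ATP luminescence, growth over a day-zero baseline plate expressed as percent of DMSO control growth, compound dilution series in 10% FBS medium.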 In kind it is cell-based. Conditions: Mus musculus, NIH3T3, 72 h, Her2 YVMAins cells, 72 h proliferation; read-out: Her2 Exon 20 YVMA insertion GI50.
In another data set the target is T2, EGFR L858R&T790M (Homo sapiens, UniProt P00533, L858R/T790M).
T2 construct: host or cells: NCI-H1975
T2 sequence (P00533 25-1210 T790M/L858R): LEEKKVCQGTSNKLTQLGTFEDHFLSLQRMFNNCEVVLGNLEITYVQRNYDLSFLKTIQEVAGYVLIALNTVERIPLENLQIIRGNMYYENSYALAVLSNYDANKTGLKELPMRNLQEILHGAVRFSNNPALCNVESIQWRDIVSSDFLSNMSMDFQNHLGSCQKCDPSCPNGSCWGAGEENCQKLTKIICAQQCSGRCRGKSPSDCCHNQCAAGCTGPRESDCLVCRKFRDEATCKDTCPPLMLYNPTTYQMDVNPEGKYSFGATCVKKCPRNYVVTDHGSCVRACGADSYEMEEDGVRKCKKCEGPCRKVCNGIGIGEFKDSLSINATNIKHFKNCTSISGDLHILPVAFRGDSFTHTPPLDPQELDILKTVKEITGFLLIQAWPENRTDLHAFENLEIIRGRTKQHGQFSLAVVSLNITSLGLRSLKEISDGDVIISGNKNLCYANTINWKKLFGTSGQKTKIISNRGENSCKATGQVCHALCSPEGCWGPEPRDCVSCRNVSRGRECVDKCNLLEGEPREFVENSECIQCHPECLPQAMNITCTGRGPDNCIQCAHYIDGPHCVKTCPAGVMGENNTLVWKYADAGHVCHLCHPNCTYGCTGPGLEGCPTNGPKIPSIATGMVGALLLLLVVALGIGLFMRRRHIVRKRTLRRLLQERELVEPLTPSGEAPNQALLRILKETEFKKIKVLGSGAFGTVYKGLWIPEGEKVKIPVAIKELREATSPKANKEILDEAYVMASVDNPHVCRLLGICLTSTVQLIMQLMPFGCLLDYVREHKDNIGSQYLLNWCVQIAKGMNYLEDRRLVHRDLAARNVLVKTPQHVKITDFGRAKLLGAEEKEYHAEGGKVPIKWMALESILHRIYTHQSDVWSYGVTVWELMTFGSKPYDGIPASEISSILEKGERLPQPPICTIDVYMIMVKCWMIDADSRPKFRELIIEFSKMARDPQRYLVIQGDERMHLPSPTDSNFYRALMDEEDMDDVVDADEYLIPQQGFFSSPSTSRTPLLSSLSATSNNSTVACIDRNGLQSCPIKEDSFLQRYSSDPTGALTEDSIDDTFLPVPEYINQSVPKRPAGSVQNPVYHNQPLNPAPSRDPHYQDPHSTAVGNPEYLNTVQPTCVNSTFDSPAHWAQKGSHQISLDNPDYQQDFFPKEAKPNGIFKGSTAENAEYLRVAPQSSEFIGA
As to the kind of experiment: EGFR L858R and T790M cellular phosphorylation inhibition in NCI-H1975 (MSD).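 Note: phosphorylated and total EGFR detected by electrochemiluminescence, cells exposed to compound in medium containing 1% FBS at 37 °C.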 Format: cell-based. Conditions: NCI-H1975 cells, 4 h compound, p-EGFR(Y1068)/total EGFR; read-out: EGFR L858R and T790M mutation IC50.

Each structure is given as a SMILES string.

One may read the Cmax as the peak of the concentration-time curve. As a reminder, the GI50 is the concentration giving 50% growth inhibition. One may read the IC50 as the concentration needed to halve the response being measured. Consider `C=CC(=O)Nc1cc(Nc2nccc(Nc3cc(Cl)c(F)cc3C(C)(C)O)n2)c(OC)cc1N1CC[C@@H](N(C)C)C1` [Compound 52, (R)-N-(5-(4-(5-chloro-4-fluoro-2-(2-hydroxypropan-2-yl)phenylamino)pyrimidin-2-ylamino)-2-(3-(dimethylamino)pyrrolidin-1-yl)-4-methoxyphenyl)a crylamide], for which the “SOA DN AUCSYS (ng·h/mL)/(mg/kg)” value in data set [1] (dose-normalised systemic AUC) was 103 (ng·h/mL)/(mg/kg). Also, in data set [1] (rat, plasma, nominal 10 mg/kg (actual dose in c1)), the concentration peaked (Cmax) at 99 ng/mL. Besides, the 50% growth inhibitory concentration (GI50) in the data set with Ri-1 cells was 51.3 nM; in the data set with DB cells, 1980 nM; in data set [3], 101 nM. The IC50 was determined as 20.4 nM in data set [2] and 1.1 nM at EGFR L858R&T790M.
